In patent US4981869A, “Xanthates as antitumor agents” (priority 1980, dated 1991):
Where two headings read alike, the source gives them in different places.

Legend:
[1] = system: numerous different representative virus types; assay: antiviral activity, plaque-reduction tests against numerous virus types; type: cell-based; details: in words
[2] = system: transformed (tumor) cells; assay: antitumor activity (general statement); type: cell-based; details: in words
Description: The compounds of the present invention, and pharmaceutical compositions containing the same, display a drastic influence on the growth patterns and on the morphological appearance of various experimentally-transformed cells in tissue culture while, at the same time, not influencing these properties of normal cell cultures.

Vaccine virus = type: cell-based; details: Substance concentration: 200γ/0,02 ml; 1% solution; chick fibroblasts
same viral strain = assay: refined plaque reduction assay; type: cell-based; details: read-out: IC50 (50% reduction in plaque forming units)
Influenza A2 = assay: plaque inhibition test, influenza; type: cell-based; details: Substance concentration: 200γ/0,02 ml; 1% solution; chick fibroblasts
Herpes virus = assay: plaque inhibition test, herpes; type: cell-based; details: Substance concentration: 200γ/0,02 ml; 1% solution; human amnion cells
various virus strains = assay: in-vitro plaque reduction test; type: cell-based; details: 20 γ/ml
[3] = system: Herpes simplex virus (HSV-I, especially strain HSV-I-ISO 3); assay: plaque-reduction assay, Herpes simplex virus; type: cell-based; details: Human alphaherpesvirus 1
selected herpes viruses = assay: resistance development test; type: cell-based; details: prolonged suboptimal concentrations, manifold passage
[4] = system: primate (monkey) cells transformed by human brain tumor (oligodendroglioma) DNA; assay: Low Serum Test
Description: Normal cells fail to grow under these conditions.
In this test, as a tissue culture, primate (monkey) cells are used which have acquired the transformed phenotype after exposure of the cells to human brain tumor (oligodendroglioma) genetic substance (DNA). A genetically-homogeneous transformed tissue culture (a clonal line) is exposed to forty (40) micrograms per milliliter of the test compound for a period of four (4) days. Parallel cultures are maintained during the treatment.
After the transient exposure to the drug, the cells are suspended in drug-free medium (at pH 7.2) containing ten percent (10%) serum, or in low-serum (0.5%).

VSV = assay: microbe, parasite or virus in culture; type: cell-based; details: Vesicular stomatitis virus, read-out: Percentage PFU compared with control at 100%
[5] = system: transformed hamster cells; assay: reversion of transformed hamster cells (FIG. 3); type: cell-based; details: 20 micrograms per milliliter
Description: FIG. 3 is a graph showing the reversion of transformed malignant phenotype cells shown in FIG. 1, i.e., transformed hamster cells which produce tumors in the animal, to phenotypically normal or flat revertant cells of the type shown in FIG. 2, which reversion was accomplished by a transient treatment of the malignant cells in tissue culture medium with twenty (20) micrograms per milliliter of a compound of the invention, in this case the compound D609, for three (3) succeeding passages, the period of each passage having a duration of one week. In the graph, the empty circles depict untreated cultures, whereas the solid circles depict […].

HSV-I-WA = assay: plaque-reduction test, HSV-I-WA; type: cell-based; details: twenty micrograms per milliliter, on the order of, read-out: Percentage PFU compared with control at 100%
Description: (§1) The compounds of the invention are active in the plaque-reduction test, a standard test for determining antiviral activity and potency, as already stated. One such standard direct plaque assay is that described by E. C. Herrmann Jr. et al., Proc. Soc. Exptl. Biol. Med. 103, 625 […]. This is the test procedure first employed and its principle is well established. It involves the following: Tissue culture cells are grown in small wells as monolayers and infected with appropriate virus dilutions. They are then overlayed with semisolid media to prevent spreading of the viral progeny to originally-uninfected cells. From the infected cells alone, foci of secondary infections develop within three (3) days, and these can be visualized as plaques after appropriate staining according to well-known procedure. To determine the inhibitory effect of a compound, the compound is administered directly onto the infected cells prior to the addition of the overlay, and the virus yield is then compared with the yield from untreated infected cell cultures. The percentage of plaque reduction or inhibition is then expressed in comparison with the 100% plaque-forming units (PFU) as taken from the uninhibited control.
(§2) When compared with the uninhibited control, plaque reduction with a compound of the invention at twenty micrograms per milliliter was on the order of the following: […]

HSV-I-A NG = assay: plaque-reduction test, HSV-I-A NG; type: cell-based; details: 5.5 micrograms/ml, on the order of, read-out: Percentage PFU compared with control at 100%
Description: as §1, §2

HSV-I = assay: plaque-reduction test, HSV-I; type: cell-based; details: Human alphaherpesvirus 1, twenty micrograms per milliliter, on the order of, read-out: Percentage PFU compared with control at 100%
Description: as §1, §2

skin tumors = assay: skin tumor prevention experiment in mice; type: in vivo
Description: In tumor-prevention experiments, the compounds of the present invention are found to prevent tumors in animals. In a representative carcinogenesis experiment, skin tumors are induced in mice according to the procedure of G. Fuerstenberger, D. L. Berry, B. Sorg, and F. Marks, "Skin Tumor Promotion by Phorbol Ester a Two-Stage Process", Proc. Natl. Acad. Sci., USA 78, 7722-7726 (1981). In replicate experiments, conducted under closely controlled conditions, and with identical strains of mice, seventeen (17) out of eighteen (18) animals in the control group developed skin tumors after a period of three (3) months. […] In the case of the treated animals, only one (1) out of the eighteen (18) animals developed a discernible skin tumor.

Coxsackie B5 = assay: plaque-reduction test, Coxsackie B5; type: cell-based; details: twenty micrograms per milliliter, on the order of, read-out: Percentage PFU compared with control at 100%
Description: as §1, §2

HSV-I-ISO 3 = assay: plaque-reduction test, HSV-I-ISO 3; type: cell-based; details: twenty micrograms per milliliter, on the order of, read-out: Percentage PFU compared with control at 100%
Description: as §1, §2

HSV I-ISO 6 = assay: plaque-reduction test, HSV I-ISO 6; type: cell-based; details: twenty micrograms per milliliter, on the order of, read-out: Percentage PFU compared with control at 100%
Description: as §1, §2

HSV II-HG-52 = assay: plaque-reduction test, HSV II-HG-52; type: cell-based; details: twenty micrograms per milliliter, on the order of, read-out: Percentage PFU compared with control at 100%
Description: as §1, §2

[6] = refined procedure, same pH and environmental conditions, same viral strain

S=C(S)O[C@@H]1C[C@H]2CC[C@@H]1C2 (relative stereo) [Example 8, Potassium 2-exo-bicyclo[2.2.1^1,4]-heptyl xanthate]
IC50 values (relative to D611) [1]: essentially identical with those of the compound D611, including IC50 values
antiviral activity (relative to reference compound) [1]: essentially identical with those of the compound D611
antitumor activity (relative to reference compound) [2]: essentially identical with those of the compound D611

S=C(S)OCc1ccccc1 [Example 2, Sodium benzyl xanthate]
Virustatic properties Vaccine (inhibition areola) (Vaccine virus): + (moderate (IA 10-20 mm))
IC50 (same viral strain; [6]): > 30 µg/mL
Virustatic properties Influenza (inhibition areola) (Influenza A2): + (moderate (IA 10-20 mm))
Virustatic properties Herpes (inhibition areola) (Herpes virus): + (moderate (IA 10-20 mm))

S=C([S-])OC1CCCCC1.[Na+] [Example 3, Sodium cyclohexyl xanthate]
Virustatic properties Vaccine (inhibition areola) (Vaccine virus): +++ (very good (IA > 30 mm))
IC50 (same viral strain; [6]): 9.5 µg/mL
inhibition at 20 µg/mL (various virus strains): 100%
Virustatic properties Influenza (inhibition areola) (Influenza A2): ++ (good (IA 20-30 mm))
Virustatic properties Herpes (inhibition areola) (Herpes virus): +++ (very good (IA > 30 mm))

S=C(S)O[C@H]1C[C@H]2CC[C@@H]1C2 (relative stereo) [Example 9, Sodium 2-endo-bicyclo [2.2.1^1,4]-heptyl xanthate]
antiviral activity (relative to reference compound) [1]: essentially the identical antiviral and antitumor activity as the corresponding potassium salt (D611)
Virustatic properties Vaccine (inhibition areola) (Vaccine virus): +++ (very good (IA > 30 mm))
antitumor activity (relative to reference compound) [2]: essentially the identical antiviral and antitumor activity as the corresponding potassium salt (D611)
Virustatic properties Influenza (inhibition areola) (Influenza A2): ++ (good (IA 20-30 mm))
Virustatic properties Herpes (inhibition areola) (Herpes virus): +++ (very good (IA > 30 mm))

Cl.NC12CC3CC(CC(C3)C1)C2 [1-Aminoadamantane hydrochloride, reference compound]
Virustatic properties Vaccine (inhibition areola) (Vaccine virus): 0
inhibition at 20 µg/mL (various virus strains): 10%
Virustatic properties Influenza (inhibition areola) (Influenza A2): +++ (very good (IA > 30 mm))
Virustatic properties Herpes (inhibition areola) (Herpes virus): 0

CC1(C)C2CCC1(C)C(C1CCC(OC(=S)S)CC1)C2 (centres unmarked) [Example 10, Potassium 4(or para)-isobornylcyclohexyl xanthate]
IC50 [3]: 1.9 µg/mL
antiviral activity (relative to reference compound) [1]: essentially identical with that for the compound D609, but somewhat superior thereto
antitumor activity (relative to reference compound) [2]: essentially identical with that for the compound D609, but somewhat superior thereto

CCCCCCOC(=S)[S-].[Na+] [sodium n-hexyl xanthate]
virustatic / antiviral activity [1]: active virustatic agents

S=C([S-])OC1CCCCCCCCCCC1.[Na+] [Example 1, Sodium cyclododecyl xanthate]
development of resistance (selected herpes viruses): under no conditions was resistance found to have developed
Virustatic properties Vaccine (inhibition areola) (Vaccine virus): +++ (very good (IA > 30 mm))
IC50 (same viral strain; [6]): 2.5 µg/mL
inhibition at 20 µg/mL (various virus strains): 100%
variability of antitumor effectiveness with environment and pH (relative to D609) [4]: somewhat less variable with environment and pH than in the case of the compound D609
Virustatic properties Influenza (inhibition areola) (Influenza A2): +++ (very good (IA > 30 mm))
Virustatic properties Herpes (inhibition areola) (Herpes virus): +++ (very good (IA > 30 mm))

S=C(S)OC1CC2CC1C1CCCC21 (centres unmarked) [Example 7, Potassium 8(9)tricyclo[5.2.1.0^2,6]decyl xanthate]
development of resistance (selected herpes viruses): under no conditions was resistance found to have developed
activity at 20 µg/mL (VSV): 0.05%
loss of the transforming tumor producing genomes ([5]; three passages): permanent loss of the transforming tumor producing genomes
reversion of transformed phenotype ([5]; three succeeding passages of one week each): disappearance of the transformed colonies or cells and their conversion into phenotypically normal or flat revertant cells
activity at 20 µg/mL (HSV-I-WA): 0.9%
activity at 5.5 µg/mL (HSV-I-A NG): 0.1%
activity at 20 µg/mL (HSV-I): 2.5%
animals that developed a discernible skin tumor (skin tumors; epicutaneous, 3 micrograms per milliliter in acetone, twice weekly for 3 months, control 17 of 18): 1 out of the eighteen (18) animals
development of tumors (skin tumors; in words): almost completely impeded
IC50 (same viral strain; [6]): 3 µg/mL
pH dependence of antiviral activity ([4]; pH 6.8 compared with 7.25-7.8): most effectively at a pH of 6.8
activity at 20 µg/mL (Coxsackie B5): 4%
activity at 20 µg/mL (HSV-I-ISO 3): 1.05%
activity at 20 µg/mL (HSV I-ISO 6): 0.1%
activity at 20 µg/mL (HSV II-HG-52): 0.3%

S=C(S)O[C@H]1C[C@H]2CC[C@@H]1C2 (relative stereo) [Example 6, Potassium 2-endo-bicyclo[2.2.1^1.4]-heptyl xanthate]
development of resistance (selected herpes viruses): under no conditions was resistance found to have developed
IC50 (same viral strain): 3 µg/mL
variability of antitumor effectiveness with environment and pH (relative to D609) [4]: somewhat less variable with environment and pH than in the case of the compound D609

CCCCCCCCCCCCOC(=S)[S-].[Na+] [n-Dodecyl Na, Sodium dodecyl xanthate]
Virustatic properties Vaccine (inhibition areola) (Vaccine virus): +++ (very good (IA > 30 mm))
IC50 (same viral strain; [6]): 7 µg/mL
inhibition at 20 µg/mL (various virus strains): 100%
Virustatic properties Influenza (inhibition areola) (Influenza A2): +++ (very good (IA > 30 mm))
Virustatic properties Herpes (inhibition areola) (Herpes virus): +++ (very good (IA > 30 mm))

S=C(S)OC12CC3CC(CC(C3)C1)C2 [Example 5, Potassium adamantyl xanthate]
Virustatic properties Vaccine (inhibition areola) (Vaccine virus): + (moderate (IA 10-20 mm))
IC50 (same viral strain; [6]): > 10 µg/mL
Virustatic properties Influenza (inhibition areola) (Influenza A2): + (moderate (IA 10-20 mm))
Virustatic properties Herpes (inhibition areola) (Herpes virus): + (moderate (IA 10-20 mm))

CCCCCCOC(=S)[S-].[K+] [potassium n-hexyl xanthate]
virustatic / antiviral activity [1]: active virustatic agents

CC1(C)C2CCC1(C)C(C1CCCCC1OC(=S)S)C2 (centres unmarked)
antiviral activity (relative to reference compound) [1]: essentially the same antiviral and antitumor activity as D622
antitumor activity (relative to reference compound) [2]: essentially the same antiviral and antitumor activity as D622
